Structures are written as SMILES. Some results are limits rather than exact numbers.

For the assay, the system named is Saccharomyces cerevisiae ABC16-Green Monster. Kind of assay: growth inhibition at single dose (up to 150 µM), below the 70% cut-off for dose-response; higher = more potent. Particulars: 18 h; 30 °C; YPD. Summed up:
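Percent growth inhibition is the reported value. Drug-sensitive S. cerevisiae ABC16-Green Monster cultures in log phase (OD600 0.1–0.2), 200 µl per well in 96-well plates, received each library compound once at 150 µM in biological duplicates, with untreated cultures run alongside. Growth was followed by OD600 at 0 h and after 18 h at 30 °C. Dose-response was not done for compounds below 70% in both replicates.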

Turning to `CCOc1ccc2nc(C)cc(Nc3ccc(Br)cc3)c2c1`, the “growth inhibition at single dose” value is under 70%. With `COc1ccc(N(CCc2cccc(C)n2)C(C)=O)cc1` the figure was under 70%; with `COCCn1c(C)nc2ccccc2c1=O`, under 70%. Regarding `O=C(Nc1ccnc(-c2cccnc2)n1)c1cc(C(F)(F)F)cc(C(F)(F)F)c1`, the “growth inhibition at single dose” value is under 70%. `Cc1nn(Cc2ccccc2)c2sc(C(=O)Nc3nc4ccccc4[nH]3)cc12`: the “growth inhibition at single dose” value was under 70%. For the compound `O=C(Nc1nc2ccc(Oc3ccccc3)cc2s1)C1=COCCO1`, the “growth inhibition at single dose” value was under 70%. Then `O=C(c1ccc(NCCO)cc1)C1C[C@H]1c1ccc(Cl)cc1` (stereo partly drawn), with under 70%.

For `Cc1cc(C)n2nc(C(=O)Nc3cc(C(F)(F)F)ccc3N3CCOCC3)nc2n1`, the “growth inhibition at single dose” value was under 70%.

Take `CCOc1c(Cl)cc(CNCC(O)c2ccccc2)cc1OC` (stereo not drawn): the “growth inhibition at single dose” value was under 70%. Turning to `CNC(=O)C1Cc2ccccc2N1C(=O)Cc1ccc(F)cc1` (stereo not drawn), the “growth inhibition at single dose” value was under 70%. With `C=CCNC(=O)C(C)Sc1nnc(-c2ccc(C)cc2)c(-c2ccc(C)cc2)n1` (stereo not drawn) the figure was under 70%; with `Cc1ccc2oc(-c3cc(NC(=O)Cc4ccccc4)ccc3Cl)nc2c1`, under 70%; with `O=[N+]([O-])c1ccc(C=NNc2nc3ccccc3[nH]2)cc1`, under 70%.

`CNC1C(OC2C(OC3C(O)C(O)C(NC(=N)N)C(O)C3NC(=N)N)OC(C)C2(O)C=O)OC(CO)C(O)C1O` (stereo not drawn): the “growth inhibition at single dose” value was under 70%. Regarding `CNc1snc(C)c1C(=O)N(C)Cc1ccccc1OC(F)(F)F`, the “growth inhibition at single dose” value was under 70%. For the compound `CCOC(=O)c1c(C)n(-c2ccc(Cl)cc2)c2ccc(OC(=O)C=Cc3ccccc3)cc12`, the “growth inhibition at single dose” value was under 70%. Consider `Cc1cccc2nc(C(=O)Nc3ccc4c(c3)nc3n4CCCCC3)cn12`, for which the “growth inhibition at single dose” value was under 70%.

As for `CC(C)(C)OC(=O)N1CCN(c2nccc(-c3ccc(-c4ccc(Cl)cc4)s3)n2)CC1`, the “growth inhibition at single dose” value was under 70%.

As for `OC[C@H]1O[C@@H](n2c3ccc(Cl)cc3c3c(-c4cc5ccccc5o4)ncnc32)C(O)[C@H]1O` (stereo partly drawn), the “growth inhibition at single dose” value is under 70%. With `O=C(Nc1ccc(Oc2ccc3ccccc3c2)cc1)c1ccccc1` the figure was under 70%; with `COc1ccc(NC2=NC(=O)/C(=C/c3cc(C)n(-c4cccc(Cl)c4Cl)c3C)S2)cc1`, under 70%. With `COC(=O)[C@@H](NC(=O)Nc1ccc(-c2nc3ccccc3s2)cc1)C(C)C` the figure was under 70%; with `COc1ccc2nc(N)nc(C)c2c1`, under 70%; with `Cc1ccnc(NC(c2cccc(OCc3ccccc3)c2)c2ccc3cccnc3c2O)c1` (stereo not drawn), under 70%. Then `CCOC(=O)C1=C(c2ccccc2)N=c2sc(=Cc3cc(C)n(-c4ccc(F)cc4)c3C)c(=O)n2C1c1cccc(OC)c1OC` (stereo not drawn), with under 70%; and `CCOc1ccc2cc(-c3nn(CC4CCN(C)CC4)c4ncnc(N)c34)ccc2c1`, with under 70%.

In the case of `CCOC(=O)c1cnc2ccc(CC)cc2c1O`, the “growth inhibition at single dose” value is under 70%. For `CC(=O)Nc1cccc2c1CCN(c1ncnc3sccc13)C2`, the “growth inhibition at single dose” value was under 70%. Take `Cc1cc(N2CCN(C)CC2)n2ncc(-c3ccccc3Cl)c2n1`: the “growth inhibition at single dose” value is under 70%. For the compound `CCCCc1ccc(NS(=O)(=O)c2cc3c4c(c2)CCN4C(=O)CC3)cc1`, the “growth inhibition at single dose” value was under 70%. With `CCc1c(C)nc(-n2nc(C)cc2NC(=O)c2ccccc2SC)[nH]c1=O` the figure was under 70%; with `CC(NC(=O)c1cccc(Nc2ncccn2)c1)c1cccc(C(F)(F)F)c1` (stereo not drawn), under 70%.

On to `FC(F)(F)c1ccc(NCCNc2ccc(C(F)(F)F)cn2)nc1`, for which the “growth inhibition at single dose” value is under 70%.

As to `O=C(NC1CC1)c1ccc(CN(C2CC2)S(=O)(=O)c2ccccc2F)cc1`, the “growth inhibition at single dose” value is under 70%.

Turning to `CC(C)c1nc2cc(NC(=O)CSc3nnnn3C3CC3)ccc2o1`, the “growth inhibition at single dose” value was under 70%.

As to `COc1ccc(-c2nonc2NC(=O)c2cccc(Cl)c2)cc1OC`, the “growth inhibition at single dose” value was under 70%.

As to `O=C(Nc1ccc(N2CCOCC2)cn1)c1ccccc1`, the “growth inhibition at single dose” value was under 70%. With `CCCc1c(C)nc2ccc(Br)cc2c1O` the figure was under 70%; with `CNc1snc(C)c1C(=O)NC(C)c1ccc(C(C)C)cc1` (stereo not drawn), under 70%. Then `COc1cccc(C(=O)Nc2ccc(-c3nc4ccccc4[nH]3)cc2)c1`, with under 70%. Then `COc1cc(C(=O)c2c(N)c(C#N)cn3c2nc2ccccc23)cc(OC)c1OC`, with under 70%; and `CN(Cc1ccc(C(N)=O)cc1)c1ncnc2ccccc12`, with under 70%; and `Nc1ncnc2c1c(Cc1cccc3ccccc13)nn2CC1CCNCC1`, with under 70%. For `CCN(CC)CCNc1ccnc2cc3ccccc3cc12`, the “growth inhibition at single dose” value is under 70%.

For `CC1CC(Nc2ccccc2)c2ccccc2N1S(=O)(=O)c1ccc(Br)cc1` (stereo not drawn), the “growth inhibition at single dose” value is under 70%.

Take `Cc1ccnc2nc(C(=O)Nc3cc(C(F)(F)F)ccc3N3CCCCCC3)nn12`: the “growth inhibition at single dose” value is under 70%. Regarding `CCOC(=O)C1CCN(C(=O)CN2C(=O)c3ccccc3C2c2c[nH]c3ccccc23)CC1` (stereo not drawn), the “growth inhibition at single dose” value is under 70%. Regarding `Cc1cc(C(=O)COC(=O)c2[nH]nc3ccccc23)c(C)n1Cc1cccs1`, the “growth inhibition at single dose” value is under 70%. With `CCc1c(C)[nH]c2cc(-c3ccc(OC)cc3)nn2c1=O` the figure was under 70%. Regarding `COc1cc2c(cc1OC)CN(CCNc1ncnc3sccc13)CC2`, the “growth inhibition at single dose” value was under 70%. On to `Cc1cc(=O)oc2c1ccc1oc(C(=O)c3ccccc3)c(C)c12`, for which the “growth inhibition at single dose” value was under 70%. With `CNc1cc(C)nc(C2CN(C(=O)c3n[nH]c4ccccc34)CCO2)c1` (stereo not drawn) the figure was under 70%; with `CN(C(=O)CSc1nnc(COc2ccccc2F)n1N)C1CCCCC1`, under 70%; with `O=C(Nc1ccccc1O)c1ccc(Cn2ccnc2)cc1`, under 70%. Then `NCCCC(N)(C(=O)O)C(F)F` (stereo not drawn), with under 70%; and `CCCCn1nc(C)c(C(=O)Nc2nc3ccccc3[nH]2)c1Cl`, with under 70%; and `CC(C(=O)N1CCCC1)N1CCN(S(=O)(=O)c2ccc(C(C)(C)C)cc2)CC1` (stereo not drawn), with under 70%. On to `O=C(NC1CCCCC1)C(c1cccs1)N(CCc1ccccc1)C(=O)c1ccco1` (stereo not drawn), for which the “growth inhibition at single dose” value was under 70%.

As to `COc1cc(NC(=O)Cc2nn(C)c(=O)c3ccccc23)ccc1Cl`, the “growth inhibition at single dose” value is under 70%.

In the case of `Cc1cccc(N2C(=O)C3C(C2=O)C2(c4ccccc4)C(=O)C3(c3ccccc3)C(c3ccc4c(c3)OCO4)=C2c2ccc3c(c2)OCO3)c1` (stereo not drawn), the “growth inhibition at single dose” value was under 70%. Then `COc1cc(CNC(=O)Nc2nc3ccccc3s2)cc(OC)c1OC`, with under 70%; and `CC(NCC(=O)N1c2ccc(S(N)(=O)=O)cc2CC1C)C1CC2CCC1C2` (stereo not drawn), with under 70%. For the compound `CC(C)n1ncc2c(C(=O)NCC(c3cccs3)N3CCOCC3)cc(-c3ccccc3)nc21` (stereo not drawn), the “growth inhibition at single dose” value was under 70%.

Regarding `CC(C)CCNCC(O)Cn1c2ccccc2c2ccccc21` (stereo not drawn), the “growth inhibition at single dose” value is under 70%.

As for `O=C(Nc1nnc(-c2ccc(Cl)s2)o1)c1ccc(Cl)s1`, the “growth inhibition at single dose” value was under 70%. With `CCOc1ccc(CN2CCN(CC(O)COc3ccc(OCC(O)CN4CCN(Cc5ccc(OCC)cc5)CC4)cc3)CC2)cc1` (stereo not drawn) the figure was under 70%.

In the case of `CCC(Sc1nc2ccccc2o1)C(=O)Nc1nccs1` (stereo not drawn), the “growth inhibition at single dose” value is under 70%. Then `CCOC(=O)c1cc(-c2csc(Nc3c(C)cc(C)cc3C)n2)on1`, with under 70%; and `COc1cccc(/C=C/c2n[nH]c(=O)c(C#N)c2C)c1`, with under 70%. Then `O=C1COCc2ccc(Br)cc2N1Cc1ccc(C(F)(F)F)cc1`, with under 70%; and `CN1CCC(c2cc(-c3ccncc3)c(-c3ccc(F)cc3)[nH]2)CC1`, with under 70%; and `Brc1c(-c2ccc3c(c2)OCO3)nc2ncccn12`, with under 70%.

With `COc1ccc2c(c1)CCCC21NC(=O)N(Cc2cc(=O)n3cc(C)ccc3n2)C1=O` (stereo not drawn), the “growth inhibition at single dose” value was under 70%. For `Clc1cc(Br)ccc1-c1ccc(CNCC2CCNCC2)o1`, the “growth inhibition at single dose” value was under 70%. Then `CCn1c2ccccc2c2cc(NC(C)C(=O)N3CCNC3=O)ccc21` (stereo not drawn), with under 70%; and `O=C(Nc1ccc(F)c(Cl)c1)c1[nH]nc2ccccc12`, with under 70%.

Take `N#Cc1ccc(-c2ccc(OCC(N)=O)cc2)cc1`: the “growth inhibition at single dose” value is under 70%. Then `O=C(CN1C(=O)CCOc2ccccc21)N1CCN(C(=O)C2COc3ccccc3O2)CC1` (stereo not drawn), with under 70%; and `CCn1cnc2c(Nc3cc(F)cc(F)c3)nc(C#N)nc21`, with under 70%. Then `COC(=O)c1ccc(CNC(=O)NCCN2c3ccccc3CCC2C)cc1` (stereo not drawn), with under 70%. With `CCCCOC(=O)Nc1cc2nc(C3CCCCC3)[nH]c2cc1N1CCCC1` the figure was under 70%; with `CC(C)(CN)c1nc(-c2ccc(Cl)c(O)c2)c(-c2ccnc(N)n2)[nH]1`, under 70%. In the case of `COc1cc(NS(=O)(=O)c2ccc(C)cc2)c(OC)cc1Cl`, the “growth inhibition at single dose” value is under 70%.

The values are drawn from the supplement of paper PMC8837787.
